Results from ChEMBL document CHEMBL5143505, “Emerging Approaches to Overcome Acquired Drug Resistance Obstacles to Osimertinib in Non-Small-Cell Lung Cancer” (J Med Chem, 2022).

What was measured:
[1] = molecular target: T1, Epidermal growth factor receptor (Homo sapiens, UniProt P00533, C797S/L858R/T790M); test: Inhibition of EGFR L858R/T790M/C797S triple mutant (unknown origin)
[2] = Inhibition of p-EGFR Del19/T790M/C797S triple mutant in mouse BaF3 cells; type: cell-based
[3] = Antiproliferative against in mouse Ba/F3 EGFR-Del19/T790M/C797S cells; type: functional, cell-based
[4] = molecular target: Epidermal growth factor receptor (Homo sapiens, UniProt P00533); test: Inhibition of wild type EGFR (unknown origin)
Sequence of Epidermal growth factor receptor (Homo sapiens, UniProt P00533) (P00533 whole entry): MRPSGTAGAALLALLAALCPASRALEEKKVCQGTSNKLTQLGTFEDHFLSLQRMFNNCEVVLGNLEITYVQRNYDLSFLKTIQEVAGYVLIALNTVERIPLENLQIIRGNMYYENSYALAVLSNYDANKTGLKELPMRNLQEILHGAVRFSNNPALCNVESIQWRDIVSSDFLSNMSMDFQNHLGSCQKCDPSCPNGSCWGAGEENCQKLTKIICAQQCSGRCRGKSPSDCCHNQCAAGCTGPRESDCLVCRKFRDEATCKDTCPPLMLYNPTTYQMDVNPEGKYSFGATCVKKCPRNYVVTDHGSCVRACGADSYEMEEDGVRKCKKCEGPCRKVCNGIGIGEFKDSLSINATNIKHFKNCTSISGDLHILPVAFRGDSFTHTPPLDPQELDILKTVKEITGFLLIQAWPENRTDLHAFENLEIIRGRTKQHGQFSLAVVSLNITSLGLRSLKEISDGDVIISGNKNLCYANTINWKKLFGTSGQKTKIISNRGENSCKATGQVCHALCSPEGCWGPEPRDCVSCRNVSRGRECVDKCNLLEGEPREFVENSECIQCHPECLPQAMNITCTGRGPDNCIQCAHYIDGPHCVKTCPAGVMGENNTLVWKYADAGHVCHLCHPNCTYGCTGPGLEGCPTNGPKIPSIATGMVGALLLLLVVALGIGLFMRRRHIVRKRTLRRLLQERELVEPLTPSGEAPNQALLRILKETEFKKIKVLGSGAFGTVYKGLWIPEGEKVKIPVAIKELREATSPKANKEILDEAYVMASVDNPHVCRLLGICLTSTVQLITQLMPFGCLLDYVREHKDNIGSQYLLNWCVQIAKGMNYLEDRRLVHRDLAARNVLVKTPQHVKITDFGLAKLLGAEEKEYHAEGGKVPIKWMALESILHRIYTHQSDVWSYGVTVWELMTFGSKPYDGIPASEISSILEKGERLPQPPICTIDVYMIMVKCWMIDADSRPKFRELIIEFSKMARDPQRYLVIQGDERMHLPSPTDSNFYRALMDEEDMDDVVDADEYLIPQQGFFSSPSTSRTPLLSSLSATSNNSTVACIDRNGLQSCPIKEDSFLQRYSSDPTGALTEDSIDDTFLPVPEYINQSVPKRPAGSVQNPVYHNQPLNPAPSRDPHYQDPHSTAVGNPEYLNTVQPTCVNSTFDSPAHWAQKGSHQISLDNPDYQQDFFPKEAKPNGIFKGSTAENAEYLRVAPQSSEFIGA

[5] = molecular target: Epidermal growth factor receptor (Homo sapiens, UniProt P00533, C797S/EX19DEL/T790M); test: Inhibition of EGFR Del19/T790M/C797S triple mutant (unknown origin)
Sequence of Epidermal growth factor receptor (Homo sapiens, UniProt P00533, C797S/EX19DEL/T790M) (P00533 whole entry, looked up, stated change not applied): as the sequence (P00533 whole entry) above

Homo sapiens = organism: Homo sapiens; test: Selectivity ratio of IC50 for EGFR Del19/T790M/C797S triple mutant (unknown origin) to wild type EGFR (unknown origin)
NCI-H1975 = test: Growth inhibition of human NCI-H1975 cells; type: functional, cell-based
[6] = molecular target: T2, Epidermal growth factor receptor (Homo sapiens, UniProt P00533, L858R/T790M); test: Inhibition of EGFR L858R/T790M double mutant (unknown origin) in human NCI-H1975 cell; type: cell-based
T2 sequence (P00533 25-1210 T790M/L858R limits assumed): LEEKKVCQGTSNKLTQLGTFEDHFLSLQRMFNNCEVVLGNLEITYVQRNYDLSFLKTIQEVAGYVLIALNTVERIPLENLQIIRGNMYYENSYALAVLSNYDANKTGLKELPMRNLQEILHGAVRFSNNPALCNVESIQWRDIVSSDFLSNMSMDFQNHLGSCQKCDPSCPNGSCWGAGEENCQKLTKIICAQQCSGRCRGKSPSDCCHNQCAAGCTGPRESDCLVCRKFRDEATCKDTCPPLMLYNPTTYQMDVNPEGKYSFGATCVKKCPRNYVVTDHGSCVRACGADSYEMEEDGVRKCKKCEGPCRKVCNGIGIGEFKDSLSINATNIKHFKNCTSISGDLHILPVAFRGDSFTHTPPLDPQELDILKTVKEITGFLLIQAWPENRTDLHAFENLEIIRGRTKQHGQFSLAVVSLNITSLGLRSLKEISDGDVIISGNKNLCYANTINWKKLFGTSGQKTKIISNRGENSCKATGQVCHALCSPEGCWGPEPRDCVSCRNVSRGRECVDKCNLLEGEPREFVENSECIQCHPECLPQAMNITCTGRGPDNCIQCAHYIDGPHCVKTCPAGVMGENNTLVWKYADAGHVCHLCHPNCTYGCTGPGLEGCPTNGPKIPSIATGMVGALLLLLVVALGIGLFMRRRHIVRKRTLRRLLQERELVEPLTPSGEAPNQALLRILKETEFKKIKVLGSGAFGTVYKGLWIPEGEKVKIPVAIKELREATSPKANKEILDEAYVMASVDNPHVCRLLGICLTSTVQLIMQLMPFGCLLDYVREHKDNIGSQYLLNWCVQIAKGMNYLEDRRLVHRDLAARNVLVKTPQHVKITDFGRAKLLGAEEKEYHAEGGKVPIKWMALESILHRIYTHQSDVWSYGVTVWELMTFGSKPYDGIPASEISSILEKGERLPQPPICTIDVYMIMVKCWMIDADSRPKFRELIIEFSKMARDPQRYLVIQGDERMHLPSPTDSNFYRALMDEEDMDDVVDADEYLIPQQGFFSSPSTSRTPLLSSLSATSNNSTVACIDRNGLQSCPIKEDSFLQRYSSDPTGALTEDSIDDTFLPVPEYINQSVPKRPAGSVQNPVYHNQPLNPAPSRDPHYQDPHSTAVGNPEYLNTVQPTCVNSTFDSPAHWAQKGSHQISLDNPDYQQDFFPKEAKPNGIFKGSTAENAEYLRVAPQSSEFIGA

[7] = Oral bioavailability in rat relative to control; type: ADME, organism-based; conditions: in vivo
[8] = Oral bioavailability in mouse relative to control; type: ADME, organism-based; conditions: in vivo
[9] = molecular target: T1, Epidermal growth factor receptor; test: Inhibition of EGFR L858R/T790M/C797S triple mutant (unknown origin) in human NCI-H1975 cell; type: cell-based
[10] = molecular target: T1, Epidermal growth factor receptor; test: Inhibition of EGFR L858R/T790M/C797S triple mutant (unknown origin) by HTRF method
BaF3 [11] = test: cells; conditions: Mus musculus
BaF3 [12] = test: Antiproliferative against in mouse BaF3 cells harbouring Del19/T790M/C797S triple mutant at 100 nM relative to control; type: functional
[13] = molecular target: T1, Epidermal growth factor receptor; test: Inhibition of EGFR L858R/T790M/C797S triple mutant (unknown origin) expressed in mouse BaF3 cells; type: cell-based
[14] = Half life in Ba/F3 EGFR cells xenografted nude mouse liver microsomes; type: ADME
[15] = molecular target: T2, Epidermal growth factor receptor; test: Inhibition of EGFR L858R/T790M double mutant (unknown origin)
[16] = Antiproliferative against in mouse Ba/F3 EGFR-T790M/C797S/L858R cells; type: functional, cell-based
BaF3 [17] = test: Antiproliferative against in mouse BaF3 EFGR Del19/T790M/C797S cell; type: functional, cell-based
[18] = Inhibition of EGFR L858R/T790M/C797S triple mutant (unknown origin) in mouse BaF3 cells; type: cell-based
[19] = molecular target: Epidermal growth factor receptor (Homo sapiens, UniProt P00533, L858R); test: Inhibition of EGFR L858R mutant (unknown origin)

T1 sequence (P00533 25-1210 T790M/C797S/L858R limits assumed): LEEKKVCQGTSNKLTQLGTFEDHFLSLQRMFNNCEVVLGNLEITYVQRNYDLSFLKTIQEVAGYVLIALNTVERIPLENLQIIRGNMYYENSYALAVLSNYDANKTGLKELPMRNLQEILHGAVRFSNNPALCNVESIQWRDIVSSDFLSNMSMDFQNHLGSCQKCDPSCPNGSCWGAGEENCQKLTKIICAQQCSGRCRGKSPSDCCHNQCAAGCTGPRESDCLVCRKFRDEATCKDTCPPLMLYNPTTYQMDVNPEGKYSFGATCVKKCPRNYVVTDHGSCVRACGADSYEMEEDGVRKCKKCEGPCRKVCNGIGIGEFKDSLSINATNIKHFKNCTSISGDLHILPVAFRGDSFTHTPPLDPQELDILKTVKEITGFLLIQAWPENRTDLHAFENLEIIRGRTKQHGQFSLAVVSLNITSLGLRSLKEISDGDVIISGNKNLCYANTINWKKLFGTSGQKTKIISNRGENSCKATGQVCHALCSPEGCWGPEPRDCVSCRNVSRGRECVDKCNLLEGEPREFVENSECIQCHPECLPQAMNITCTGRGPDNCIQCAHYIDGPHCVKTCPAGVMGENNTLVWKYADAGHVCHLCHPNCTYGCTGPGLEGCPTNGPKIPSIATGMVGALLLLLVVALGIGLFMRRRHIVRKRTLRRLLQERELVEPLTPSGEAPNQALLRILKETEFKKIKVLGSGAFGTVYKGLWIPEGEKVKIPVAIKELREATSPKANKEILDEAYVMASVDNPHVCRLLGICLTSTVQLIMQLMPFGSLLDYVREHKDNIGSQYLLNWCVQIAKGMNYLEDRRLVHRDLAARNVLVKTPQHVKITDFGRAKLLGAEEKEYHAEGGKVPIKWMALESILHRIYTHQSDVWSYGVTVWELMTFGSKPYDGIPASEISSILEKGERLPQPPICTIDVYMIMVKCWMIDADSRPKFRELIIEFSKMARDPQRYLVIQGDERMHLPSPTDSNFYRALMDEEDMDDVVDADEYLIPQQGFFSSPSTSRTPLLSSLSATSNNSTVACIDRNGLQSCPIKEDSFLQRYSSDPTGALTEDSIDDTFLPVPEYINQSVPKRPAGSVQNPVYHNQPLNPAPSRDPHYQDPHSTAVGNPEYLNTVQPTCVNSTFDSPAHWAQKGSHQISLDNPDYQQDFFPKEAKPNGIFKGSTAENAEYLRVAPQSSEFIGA

SMILES: CN1CCN(c2ccc(Nc3ncc4nc(Nc5ccccc5)n([C@H]5CCN(S(=O)(=O)C6CC6)C5)c4n3)cc2)CC1
- IC50 [1]: 18 nM

SMILES: CN1CC2(CCN(c3ccc(Nc4ncc(Cl)c(Nc5ccccc5P(C)(C)=O)n4)cc3Br)CC2)C1
- IC50 [2]: ≤ 100 nM
- IC50 [3]: ≤ 100 nM

SMILES: OCCCCc1nc(-c2ccc(F)cc2)c(-c2ccnc3[nH]c(-c4ccccc4)cc23)[nH]1
- IC50 [4]: ≤ 0.3 nM

SMILES: N#Cc1ccc(O)c(-c2nc(NCc3cnccn3)c3ccccc3n2)c1
- IC50 [5]: 17.9 nM
- IC50 [4]: ≥ 50000 nM
- Ratio IC50 (Homo sapiens): 1000

SMILES: OCCc1nc(-c2ccc(F)cc2)c(-c2ccnc3[nH]c(-c4ccccc4)cc23)[nH]1
- IC50 [4]: ≤ 0.3 nM

SMILES: N#Cc1ccc(O)c(-c2nc(NCc3cccnc3)c3ccccc3n2)c1
- IC50 [5]: 23 nM
- IC50 [4]: 50000 nM

SMILES: OCCCc1nc(-c2ccc(F)cc2)c(-c2ccnc3[nH]c(-c4ccccc4)cc23)[nH]1
- IC50 [4]: ≤ 0.2 nM

SMILES: O=C(Nc1nccs1)C(c1ncn2c1CCC2)N1Cc2c(F)cc(C#Cc3ccc(CN4CCC(CO)CC4)cc3)cc2C1=O (configuration not stated)
- IC50 [1]: 5 nM

SMILES: CN(C)C1CCN(c2ccc(Nc3cc4c(N5CCC(CO)CC5)nc(Nc5ccc(F)cc5)nc4cn3)nc2)CC1
- IC50 [1]: 662 nM
- IC50 (NCI-H1975): 400 nM

SMILES: N#Cc1ccc(O)c(-c2nc(NCc3ncccn3)c3ccccc3n2)c1
- IC50 [6]: 3300 nM
- bioavailability [7]: 18.6%
- bioavailability [8]: 18.6%
- IC50 [9]: 1200 nM
- IC50 [10]: 630 nM

SMILES: COc1cc(N2CCC(N3CCN(C)CC3)CC2)ccc1Nc1ncc(Cl)c(Nc2ccccc2P(C)(C)=O)n1 [BRIGATINIB]
- IC50 (BaF3 [11]): 30 nM
- inhibition at 0.1 µM (BaF3 [12]): 50%

SMILES: CC(C)(C)n1cc(-c2cncc3ccccc23)c2c(N)ncnc21
- IC50 [13]: 5420 nM
- IC50 [1]: 53 nM
- IC50 [4]: 1620 nM

SMILES: O=C1c2cc(F)ccc2Nc2ccccc2N1Cc1ccccc1
- IC50 [1]: 52 nM
- IC50 [4]: > 1000 nM

SMILES: CN1CCN(c2ccc(Nc3ncc4nc(Nc5ccc(F)cc5)n([C@H]5CCN(S(=O)(=O)C6CC6)C5)c4n3)cc2)CC1
- IC50 [1]: 22 nM

SMILES: CCC(=O)N[C@H]1CC[C@H](n2c(=O)c(-c3ccccc3Cl)cc3ccc(Nc4ccc(N5CCN(C)CC5)c(C)c4)cc32)CC1
- IC50 [1]: 38.1 nM

SMILES: COc1cc2c(Nc3ccc(NC(=O)C(c4cc(F)ccc4F)N4Cc5ccccc5C4=O)cc3F)ncnc2cc1OCC1CCN(C)CC1 (configuration not stated)
- IC50 [3]: 3.54 nM

SMILES: Oc1ccc(-c2nc(-c3ccnc4[nH]c(-c5ccccc5)cc34)c(-c3ccc(F)cc3)[nH]2)cc1
- IC50 [4]: 1000 nM

SMILES: CCc1cc(Nc2ncc(Br)c(Nc3ccc4nccnc4c3P(C)(C)=O)n2)c(OC)cc1N1CCC(N2CCN(C)CC2)CC1
- IC50 [5]: 0.212 nM
- half-life [14]: 20.5 h
- IC50 [3]: 9 nM

SMILES: O=C(Nc1nccs1)C(c1ccccc1)N1Cc2ccc(-c3ccc4[nH]ccc4c3)cc2C1=O (configuration not stated)
- IC50 [15]: 15 nM

SMILES: CSc1nc(-c2ccc(F)cc2)c(-c2ccnc3[nH]c(-c4ccccc4)cc23)[nH]1
- IC50 [4]: 287 nM

SMILES: Cn1cc(-c2cc(C(=O)/N=c3\[nH]c4ccccc4n3[C@H]3CC[C@H](O)CC3)ccn2)cn1
- IC50 [16]: 48.2 nM
- IC50 [1]: 48.2 nM
- IC50 [5]: 12 nM
- IC50 [4]: 540 nM
- IC50 [3]: 12 nM

SMILES: C=CC(=O)Nc1cc(Nc2ncc(C(=O)OC(C)C)c(-c3cc4ccccc4n3C)n2)c(OCC(F)(F)F)nc1N(C)CCN(C)C
- IC50 [3]: 9 nM

SMILES: CC(C)(O)Cn1/c(=N/C(=O)c2cc(F)cc(-c3cccnc3)c2)[nH]c2ccccc21
- IC50 [2]: 790 nM
- IC50 (BaF3 [17]): 250 nM

SMILES: COC(=O)c1ccc(O)c(-c2nc(NCc3cccnc3)c3ccccc3n2)c1
- IC50 [4]: ≥ 50000 nM

SMILES: Oc1ccccc1-c1nc(NCc2cccnc2)c2ccccc2n1
- Ratio IC50 (Homo sapiens): 163

SMILES: CC(=O)N[C@H]1CC[C@H](n2c(=O)c(-c3ccccc3Cl)cc3ccc(Nc4ccc(N5CCN(C)CC5)c(C)c4)cc32)CC1
- IC50 [1]: 47.8 nM

SMILES: C=C(C)c1cnc(Nc2ccc(N3CCC4(CC3)CN(C)C4)cc2)nc1Nc1ccccc1P(C)(C)=O
- IC50 [2]: ≤ 100 nM
- IC50 [3]: ≤ 100 nM

SMILES: CCC(=O)N[C@H]1CC[C@@H](N2C(=O)N(c3ccccc3Cl)Cc3cnc(Nc4ccc(N5CCN(C)CC5)c(C)c4)nc32)CC1
- IC50 [18]: 210 nM

SMILES: Cc1cc(Nc2ncc(Cl)c(Nc3ccccc3P(C)(C)=O)n2)ccc1N1CCC2(CC1)CN(C)C2
- IC50 [2]: ≤ 100 nM
- IC50 [3]: ≤ 100 nM

SMILES: Cc1cc2cc(n1)-c1cnn(C)c1OCCC[C@@H](C)CN1/C(=N/C2=O)Nc2ccc(CN3CCN(C)CC3)cc21
- IC50 [2]: 0.6 nM

SMILES: COc1cc(N(C)CCN(C)C)ccc1Nc1nccc(-c2cn(CCCO)c3ccccc23)n1
- IC50 [1]: 8.5 nM

SMILES: CCC(=O)N1CCC[C@@H](N2CC(c3cccc(F)c3Cl)=C(C)c3cnc(Nc4ccc(N5CCN(C)CC5)c(C)c4)nc32)C1
- IC50 [13]: 662 nM
- IC50 [1]: 27.5 nM
- IC50 [4]: ≥ 1000 nM

SMILES: CN(C)CCOc1ccc(Nc2ncc3nc(Sc4ccc(F)cc4)n(C4CCOCC4)c3n2)cc1
- IC50 [19]: 1.2 nM

SMILES: COc1cc(N2CCC(N3CCN(C)CC3)CC2)c(C)cc1Nc1ncc(Br)c(Nc2ccc3nccnc3c2P(C)(C)=O)n1
- half-life [14]: 10 h

SMILES: CN1CCN(c2ccc(Nc3ncc4nc(Nc5ccccc5)n([C@@H]5CCN(S(=O)(=O)C6CC6)C5)c4n3)cc2)CC1
- IC50 [1]: 40 nM

SMILES: C=CC(=O)Nc1cc(Nc2nccc(-c3cn(C)c4ccccc34)n2)c(OC)cc1N(C)CCN(C)C [OSIMERTINIB]
- IC50 [16]: 1080 nM
- IC50 [3]: 730 nM

SMILES: C=CC(=O)Nc1cc(Nc2ncc(C(=O)OC(C)C)c(-c3cc4ccccc4n3C3CC3)n2)c(OCC(F)(F)F)nc1N(C)CCN(C)C
- IC50 [3]: 10 nM
